Data as given in patent US20240165216A1, “NOVEL R[…] OF MYC[…] AND USE OF SAME” (priority 2021, published 2024).

Legend:
[1] = system: immune cells secreting IFN-γ and TNF-α; experiment: MC38 model, co-administration with cisplatin: flow cytometry of cancer tissue; assay type: in vivo, mouse; conditions: versus control group; FIG. 34c
MIF = experiment: MC38 model, co-administration with cisplatin: anti-MIF antibody titer and serum cytokines; assay type: in vivo, mouse; conditions: versus control group; FIG. 33
From the text: Thus, it was considered that the production of anti-MIF antibody increased, and it was expected that the production of serum cytokines, which is a measure of the increase in immune activity in the body, would also be increased.

In the case of N.N.[Cl][Pt][Cl] [cisplatin], the “TCRγδ T cells secreting IFN-γ in cancer tissue” value [1] is reported as “increased” and the “serum cytokine (IFN-γ and TNF-α) levels” value (MIF) is reported as “significantly increased”.
